Results: patent US20220319656A1, “AUTOMATED LITERATURE META ANALYSIS USING HYPOTHESIS GENERATORS AND AUTOMATED SEARCH” (TECHNION RESEARCH & DEVELOPMENT FOUNDATION, priority 2019, published 2022)

Columns and labels:
Fadu cells = assay type: cell-based; conditions: 72 h
Method: FaDu cell line were cultured in DMEM (Biological Industries) containing 10% fetal bovine serum, 2 mM L-Glutamine (Biological Industries) and 1% penicillin/streptomycin (Biological Industries). 5000 cells per well in 0.2 ml growth media were seeded in a 96-well plate and allowed to attach for 24 hours. After 24 hours the cells were exposed to logarithmic gradient of drugs (Gemcitabine, Sorafenib, Nilotinib, Carfilzomib, Nintedanib, Trametinib, Cabozantinib, Ponatinib, Infigratinib, Duvelisib). Cell survival for the cell lines was assayed after 3 days from adding the drugs. For the U20S and MG-63 by adding […] (5 mg/ml) in DDW to each well. After 3 hours, the solution was removed and 200 μl of DMSO was added. For the Fadu cell line by adding 30 μl of MTT solution (5 mg/ml) in DDW to each well. After 1 hour, the solution was removed and 100 μl of DMSO was added to dissolve the formazan crystals. Cell viability was evaluated by measuring the absorbance of each well using a Synergy H1 (BioTek) plate reader at 570 nm relative to control wells.

MG63 = test: Cell viability assay (MTT), in vitro screen, MG63 cells; assay type: cell-based, Human; conditions: 72 h
Method: Human osteosarcoma MG-63, U2OS cell lines were kind gift from David Meiri, and head and neck FaDu cell line were a kind gift of Moshe Elkabetz. These cells were incubated under standard conditions of 37° C., 5% CO2, and 95% humidity. MG-63 and U2OS cells were cultured in RPMI-1640 (Biological Industries) containing 10% fetal bovine serum, 2 mM L-Glutamine (Biological Industries) and 1% penicillin/streptomycin (Biological Industries).
5000 cells per well in 0.2 ml growth media were seeded in a 96-well plate and allowed to attach for 24 hours. After 24 hours the cells were exposed to logarithmic gradient of drugs (Gemcitabine, Sorafenib, Nilotinib, Carfilzomib, Nintedanib, Trametinib, Cabozantinib, Ponatinib, Infigratinib, Duvelisib).
Cell survival for the cell lines was assayed after 3 days from adding the drugs. For the U20S and MG-63 by adding […] (5 mg/ml) in DDW to each well. After 3 hours, the solution was removed and 200 μl of DMSO was added. For the Fadu cell line by adding 30 μl of MTT solution (5 mg/ml) in DDW to each well. After 1 hour, the solution was removed and 100 μl of DMSO was added to dissolve the formazan crystals. Cell viability was evaluated by measuring the absorbance of each well using a Synergy H1 (BioTek) plate reader at 570 nm relative to control wells.

[1] = from a short literature review; cited from earlier work

| Compound | potency in the in-vitro screen (Fadu cells; Fadu cells, MTT) | sensitivity of cells to free drug and nanoparticle formulation (Fadu cells; Fadu cells, MTT) | cytotoxicity (Fadu cells; human) [%] | potency / growth inhibition in the in-vitro screen (MG63) | sensitivity of cells to free drug and nanoparticle formulation (MG63) | cytotoxicity (MG63; low nanomolar concentrations) | effectiveness versus chemotherapy combination of pemetrexed and cisplatin [1] |
| --- | --- | --- | --- | --- | --- | --- | --- |
| CC(C)C[C@H](NC(=O)[C@H](CCc1ccccc1)NC(=O)CN1CCOCC1)C(=O)N[C@@H](Cc1ccccc1)C(=O)N[C@@H](CC(C)C)C(=O)[C@@]1(C)CO1 [carfilzomib] | most potent molecule | less sensitive | 64 | most potent compound | extremely sensitive | more than 95% |  |
| C=CC(=O)Nc1cc(Nc2nccc(-c3cn(C)c4ccccc34)n2)c(OC)cc1N(C)CCN(C)C [osimertinib] |  |  |  |  |  |  | more effective |
